From patent US20060265780A1, “Interaction of glyphosate with photosystem II inhibitor herbicides as a selection tool for roundup ready events” (Monsanto Technology LLC, priority 2005, published 2006) come the findings set out here.

Type in all cases: in vivo
Data set [1] deals with DKC 53-33 corn hybrid (NK 603 event). As to the kind of experiment: Greenhouse glyphosate/PSII inhibitor injury assay, Example 2. Particulars: single application, treated at 2 leaves unfolded (GS 12). Here is the method:
(§1) Two corn seeds were planted one inch deep per 3.5×3.5 inch plastic pot filled with commercial potting mix (Redi-earth). The potting mix was supplemented with Osmacote™ 14-14-14 slow release fertilizer at 100 gm/ft3 to optimize growth. Pots were then placed in a greenhouse (25 C day/19 C night, 14 hour day) and water was supplied through subirrigation. Plants were allowed to grow to the stage where 3 leaves were unfolded (6-9 days after planting, approximate growth stage of GS 13) prior to the application of glyphosate and photosystem II inhibitor.
(§2) Herbicide treatments consisted of application of glyphosate and PSII inhibitor. Application rates for glyphosate (Roundup UltraMAX, Monsanto, St. Louis) included: 840 gm/ha; 1680 gm/ha; and 3360 gm/ha (i.e., 0.75 lbs/A; 1.5 lbs/A; and 3.0 lbs/A). Application rates for linuron (Lorox, DuPont) included 56 gm/ha; 112 gm/ha; and 224 gm/ha. Application rates for metribuzin (Sencor, Bayer) included 56 gm/ha; 112 gm/ha; and 224 gm/ha. Treatments were broadcast applied in a research track sprayer utilizing an even flat fan spray tip. Plants were returned to the greenhouse following applications. Growth inhibition was measured 10 days after treatment (DAT). […] Growth reduction can be measured about 7-10 DAT by direct or visual estimation (0=no growth reduction, 100=complete growth reduction).
(§3) Roundup Ready corn hybrids tested were RX 686Roundup Ready (GA 21 event) and DKC 53-33(NK 603 event). Growth of plant material and treatment regime was as described in Example 1, except plants were allowed to grow to the stage where 2 leaves were unfolded (approximately GS 12) prior to the application of glyphosate and photosystem II inhibitor. Growth inhibition was measured 10 days after treatment (DAT).

Data set [2] has as its system RX 686 Roundup Ready corn hybrid (GA 21 event). The description is as above. To be noted: single application, treated at 2 leaves unfolded (GS 12). The method, then: as §1, §2, §3
For data set [3], the system named is GA 21 corn event. Here is the method:
(§4) The glyphosate tolerance of RoundUp Ready corn events NK 603 and GA 21 were characterized in field trials. Corn was planted in 36 inch rows in plots of 4 rows by 30 ft with the two center rows being harvested. The study comprised 22 locations with 4 replicates of each treatment per location and the data were pooled across locations. Corn plants were treated with glyphosate at two consecutive developmental ages of V4 and V8. Glyphosate application rates were 0.75, 1.5, and 2.23 pounds per acre (lbs/A). Application volume was 10 gallons/acre. […] Data for chlorosis, malformed leaves, and growth reduction was collected at 22 locations. Also, at harvest of mature corn plants, the yield percentage and grain moisture percentage were assessed. Data for yield and grain moisture was collected at harvest at 19 locations and expressed as the mean percentage yield or moisture with respect to controls.

Data set [4] deals with NK 603 corn event. Here is the method:
as §4

The test system of data set [5] is GA 21 corn event. To be noted: for % Yield / % Grain Moisture: harvest, 19 locations.
Data set [6] concerns NK 603 corn event. This is another data set of the same source.
Where [7] appears, read: glyphosate rate 0.75/0.75 (lbs/A) at V4/V8, 22 locations.
The mark [8] stands for this setting: glyphosate rate 0.75/0.75 at V4/V8, mean with respect to controls, harvest, 19 locations.
The mark [9] stands for this setting: glyphosate rate 1.5/1.5 (lbs/A) at V4/V8, 22 locations.
Setting [10] is: glyphosate rate 1.5/1.5 at V4/V8, locations with injury greater than 9%.
Setting [11] is: glyphosate rate 2.25/2.25 at V4/V8, locations with injury greater than 9%.
[12] abbreviates: NK 603, glyphosate rate 0.75/0.75 (lbs/A) at V4/V8, 22 locations.
[13] abbreviates: NK 603, glyphosate rate 1.5/1.5 (lbs/A) at V4/V8, 22 locations.
The mark [14] stands for this setting: NK 603, glyphosate rate 1.5/1.5 at V4/V8, mean with respect to controls, harvest, 19 locations.
Setting [15] is: glyphosate rate 2.25/2.25 (lbs/A) at V4/V8, 22 locations.
[16] abbreviates: glyphosate rate 2.25/2.25 at V4/V8, mean with respect to controls.
Setting [17] is: glyphosate rate 2.25/2.25 at V4/V8, mean with respect to controls, harvest, 19 locations.

Read-outs that look alike come from different tables or passages of the source.

`O=C(O)CNCP(=O)(O)O` [glyphosate, N-phosphonomethylglycine]: the crop injury result in data set [1] and in data set [2] was “did not produce any discernable crop injury” each time. Moreover, the “% Chlorosis 10 DAT: number of locations exhibiting injury greater than 9%” value is “None” in data set [3] (setting [7]); “None” in data set [4] (setting [12]); “None” in data set [4] (setting [13]); 3 in data set [5] (setting [9]); 3 in data set [5] (setting [15]); 3 in data set [6] (setting [15]). In addition, the “% Malform 10 DAT: number of locations exhibiting injury greater than 9%” value in data set [3] (setting [7]) is “None”; in data set [4] (setting [12]), “None”; in data set [5] (setting [9]) it was 5; in data set [5] (setting [15]), 6; in data set [6] (setting [9]) it was 3; in data set [6] (setting [15]) it was 6. Also, the “% Grain Moisture” value in data set [3] (setting [8]) was 100.7%; in data set [4] (setting [14]) it was 101.7%; in data set [5] (glyphosate rate 1.5/1.5 at V4/V8, mean with respect to controls), 101.0%; in data set [5] (setting [16]), 101.6%; in data set [6] (setting [8]), 100.2%; in data set [6] (setting [17]), 103.1%. For the same compound, the “% Growth Reduction 30 DAT: number of locations exhibiting injury greater than 9%” value is 1 in data set [3] (setting [9]); “None” in data set [4] (setting [13]); “None” in data set [5] (setting [7]); 4 in data set [5] (setting [15]); “None” in data set [6] (setting [7]); 2 in data set [6] (setting [15]). In addition, the “% Growth Reduction 10 DAT: percentage range of observed injury” value in data set [3] (setting [10]) is given as 10-14%; in data set [5] (setting [11]), 11-30%; in data set [6] (setting [11]), 10-19%. The “% Growth Reduction 30 DAT: percentage range of observed injury” value in data set [3] (setting [10]) is recorded as 11%; in data set [3] (setting [11]), 10-13%; in data set [6] (setting [11]), 11-15%. Besides, the “% Yield” value in data set [3] (glyphosate rate 1.5/1.5 at V4/V8, mean with respect to controls, harvest, 19 locations) was found to be 97.8%; in data set [4] (NK 603, glyphosate rate 0.75/0.75 at V4/V8, mean with respect to controls, harvest, 19 locations) it was 103.3%; in data set [4] (setting [14]), 99.4%; in data set [5] (glyphosate rate 0.75/0.75 at V4/V8, mean with respect to controls) it was 101.8%; in data set [5] (setting [16]), 90.8%; in data set [6] (setting [17]), 96.6%. Also, the results for the “% Chlorosis 10 DAT: percentage range of observed injury” value in data set [3] (setting [11]), in data set [5] (setting [10]) and in data set [6] (setting [11]) were 11-21%, 10-14% and 11-19%, respectively. The “% Malform 10 DAT: percentage range of observed injury” value in data set [4] (NK 603, glyphosate rate 1.5/1.5 at V4/V8, locations with injury greater than 9%) is recorded as 10-11%; in data set [5] (setting [10]), 11-16%; in data set [5] (setting [11]) it was 10-33%; in data set [6] (setting [11]) it was 11-19%. Further, the injury result in data set [4] (glyphosate applications up to 3360 gm/ha, even applied sequentially, NK 603 event (e.g. DKC 53-33 hybrid)) was “no injury”. In addition, the “% Growth Reduction 10 DAT: number of locations exhibiting injury greater than 9%” value in data set [5] (setting [7]) was “None”; in data set [5] (setting [9]), 5; in data set [5] (setting [15]) it was 7; in data set [6] (setting [7]), “None”; in data set [6] (setting [9]) it was “None”; in data set [6] (setting [15]) it was 3.

`CON(C)C(=O)Nc1ccc(Cl)c(Cl)c1` [linuron]: the crop injury entry in data set [1] and in data set [2] was “did not produce any discernable crop injury” in each case.

Take `CSc1nnc(C(C)(C)C)c(=O)n1N` [metribuzin]: the crop injury entry in data set [1] and in data set [2] was “did not produce any discernable crop injury” each time.
